Experimental data: patent publication US20240228572A1 (i2o Therapeutics, Inc., priority 2020, published 2024)
*1 amine or outer side, *2 acyl side, *3 side chain or, on linkers, in order; H or OH if unused. Where a SMILES comes first, the peptide text is derived from it. Bridges are numbered along the chain shown (N, C = ends). Side-chain parts run from the residue outwards. The star is where a group is joined. C20 diacid = O=C(O)CCCCCCCCCCCCCCCCCCC(=O)*; γGlu = O=C(O)[C@H](CCC(=O)[*:2])N[*:1]; AEEA = NCCOCCOCC(=O)O

Experiments:
[1] = target: T1, human Glucagon receptor (GCGR) (Homo sapiens, UniProt P47871); assay: cAMP accumulation assay, CHO-K1 cells expressing human GCGR; assay type: cell-based; settings: mean pEC50, Table 10
T1 construct: A cDNA fragment encoding the full-length open reading frame of the human GCGR; expressed in transfected cells; host or cells: CHO-K1, pcDNA3.1+, Lipofectamine 2000
T1 sequence (P47871 26-477): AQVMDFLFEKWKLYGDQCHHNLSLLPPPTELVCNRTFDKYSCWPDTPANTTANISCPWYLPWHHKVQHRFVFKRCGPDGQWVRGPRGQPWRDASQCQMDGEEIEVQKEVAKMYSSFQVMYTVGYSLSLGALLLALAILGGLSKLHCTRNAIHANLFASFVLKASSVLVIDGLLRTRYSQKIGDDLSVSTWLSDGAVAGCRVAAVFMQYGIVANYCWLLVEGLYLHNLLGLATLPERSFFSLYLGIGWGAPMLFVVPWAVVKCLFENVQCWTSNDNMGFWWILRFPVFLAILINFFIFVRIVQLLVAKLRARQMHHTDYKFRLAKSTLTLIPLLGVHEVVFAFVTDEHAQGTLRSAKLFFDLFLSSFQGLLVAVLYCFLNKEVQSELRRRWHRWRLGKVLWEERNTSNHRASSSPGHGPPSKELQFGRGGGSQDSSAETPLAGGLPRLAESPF

[2] = target: T2, human GLP-1 receptor (GLP-1R) (Homo sapiens, UniProt P43220); assay: cAMP accumulation assay, CHO-K1 cells stably expressing human GLP-1R; assay type: cell-based; settings: cAMP accumulation, mean pEC50, Table 10
T2 construct: expressed in transfected cells
T2 sequence (P43220 24-463): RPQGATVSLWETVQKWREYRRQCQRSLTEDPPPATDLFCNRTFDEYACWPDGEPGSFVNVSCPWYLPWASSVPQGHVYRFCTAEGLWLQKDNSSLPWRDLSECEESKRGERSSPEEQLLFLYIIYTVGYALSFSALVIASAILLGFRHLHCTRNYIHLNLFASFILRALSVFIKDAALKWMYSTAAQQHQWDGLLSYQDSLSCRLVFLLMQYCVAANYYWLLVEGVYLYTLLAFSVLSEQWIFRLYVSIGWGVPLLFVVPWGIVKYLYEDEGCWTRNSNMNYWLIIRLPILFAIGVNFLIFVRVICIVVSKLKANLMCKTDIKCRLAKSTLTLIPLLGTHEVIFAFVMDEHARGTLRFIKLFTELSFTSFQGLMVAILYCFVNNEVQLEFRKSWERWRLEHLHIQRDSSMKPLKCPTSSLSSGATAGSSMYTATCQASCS

Compound | EC50 [1] | EC50 [2]
CC(C)C[C@H](NC(=O)[C@H](Cc1ccc(O)cc1)NC(=O)[C@H](CCCCN)NC(=O)[C@H](CO)NC(=O)[C@H](Cc1ccc(O)cc1)NC(=O)[C@H](CC(=O)O)NC(=O)[C@H](CO)NC(=O)[C@@H](NC(=O)[C@H](Cc1ccccc1)NC(=O)[C@@H](NC(=O)CNC(=O)[C@H](Cc1c[nH]cn1)NC(=O)[C@H](CO)NC(=O)[C@@H](N)Cc1ccc(O)cc1)[C@@H](C)O)[C@@H](C)O)C(=O)N[C@@H](CC(=O)O)C(=O)N[C@@H](CCCCNC(=O)CC[C@H](NC(=O)CC[C@H](NC(=O)COCCOCCNC(=O)CCCCCCCCCCCCCCCCCCC(=O)O)C(=O)O)C(=O)O)C(=O)N[C@@H](CCCCN)C(=O)N[C@@H](Cc1ccc(O)cc1)C(=O)N[C@@H](C)C(=O)N[C@H]1CCC(=O)NCCCC[C@@H](C(=O)N[C@@H](Cc2c[nH]c3ccccc23)C(=O)N[C@@H](CC(C)C)C(=O)N[C@@H](CCC(=O)O)C(=O)N[C@@H](CCCCN)C(=O)N[C@@H](CCC(=O)O)C(=O)N2CCC[C@H]2C(=O)N[C@@H](CO)C(=O)N[C@@H](CO)C(=O)NCC(=O)N[C@@H](C)C(=O)N2CCC[C@H]2C(=O)N2CCC[C@H]2C(=O)N2CCC[C@H]2C(=O)N[C@@H](CO)C(=O)O)NC(=O)[C@H](C(C)C)NC(=O)[C@H](Cc2ccccc2)NC(=O)[C@H](CCCCN)NC1=O [Compound A26] (H-YSHGTFTSDYSKYLDK([γGlu-γGlu-AEEA-C20 diacid])KYAEKFVKWLEKEPSSGAPPPS-OH; lactam 20-24; N-terminus assumed) | 7.94 pM | > 1000 pM
CC(C)C[C@H](NC(=O)[C@H](Cc1ccc(O)cc1)NC(=O)[C@H](CCCCN)NC(=O)[C@H](CO)NC(=O)[C@H](Cc1ccc(O)cc1)NC(=O)[C@H](CC(=O)O)NC(=O)[C@H](CO)NC(=O)[C@@H](NC(=O)[C@H](Cc1ccccc1)NC(=O)[C@@H](NC(=O)CNC(=O)[C@H](Cc1c[nH]cn1)NC(=O)[C@H](CO)NC(=O)[C@@H](N)Cc1ccc(O)cc1)[C@@H](C)O)[C@@H](C)O)C(=O)N[C@@H](CC(=O)O)C(=O)N[C@@H](CCCCNC(=O)CC[C@H](NC(=O)CC[C@H](NC(=O)COCCOCCNC(=O)CCCCCCCCCCCCCCCCCCC(=O)O)C(=O)O)C(=O)O)C(=O)N[C@@H](CCCCN)C(=O)N[C@@H](Cc1ccc(O)cc1)C(=O)N[C@@H](C)C(=O)N[C@H]1CCC(=O)NCCCC[C@@H](C(=O)N[C@@H](Cc2c[nH]c3ccccc23)C(=O)N[C@@H](CC(C)C)C(=O)N[C@@H](CCC(=O)O)C(=O)N[C@@H](CC(N)=O)C(=O)N[C@@H](CCC(=O)O)C(=O)N2CCC[C@H]2C(=O)N[C@@H](CO)C(=O)N[C@@H](CO)C(=O)NCC(=O)N[C@@H](C)C(=O)N2CCC[C@H]2C(=O)N2CCC[C@H]2C(=O)N2CCC[C@H]2C(=O)N[C@@H](CO)C(=O)O)NC(=O)[C@H](C(C)C)NC(=O)[C@H](Cc2ccccc2)NC(=O)[C@H](CCCCN)NC1=O [Compound A27] (H-YSHGTFTSDYSKYLDK([γGlu-γGlu-AEEA-C20 diacid])KYAEKFVKWLENEPSSGAPPPS-OH; lactam 20-24; N-terminus assumed) | 1 pM | > 1000 pM
CC(C)C[C@H](NC(=O)[C@H](Cc1ccc(O)cc1)NC(=O)[C@H](CCCCN)NC(=O)[C@H](CO)NC(=O)[C@H](Cc1ccc(O)cc1)NC(=O)[C@H](CC(=O)O)NC(=O)[C@H](CO)NC(=O)[C@@H](NC(=O)[C@H](Cc1ccccc1)NC(=O)[C@@H](NC(=O)CNC(=O)[C@H](Cc1c[nH]cn1)NC(=O)[C@H](CO)NC(=O)[C@@H](N)Cc1ccc(O)cc1)[C@@H](C)O)[C@@H](C)O)C(=O)N[C@@H](CC(=O)O)C(=O)N[C@@H](CCCCNC(=O)CC[C@H](NC(=O)CC[C@H](NC(=O)COCCOCCNC(=O)CCCCCCCCCCCCCCCCCCC(=O)O)C(=O)O)C(=O)O)C(=O)N[C@@H](CCCCN)C(=O)N[C@@H](Cc1ccc(O)cc1)C(=O)N[C@@H](C)C(=O)N[C@H]1CCC(=O)NCCCC[C@@H](C(=O)N[C@@H](Cc2c[nH]c3ccccc23)C(=O)N[C@@H](CC(C)C)C(=O)N[C@@H](CCC(=O)O)C(=O)N[C@@H](CO)C(=O)N[C@@H](CCC(=O)O)C(=O)N2CCC[C@H]2C(=O)N[C@@H](CO)C(=O)N[C@@H](CO)C(=O)NCC(=O)N[C@@H](C)C(=O)N2CCC[C@H]2C(=O)N2CCC[C@H]2C(=O)N2CCC[C@H]2C(=O)N[C@@H](CO)C(=O)O)NC(=O)[C@H](C(C)C)NC(=O)[C@H](Cc2ccccc2)NC(=O)[C@H](CCCCN)NC1=O [Compound A28] (H-YSHGTFTSDYSKYLDK([γGlu-γGlu-AEEA-C20 diacid])KYAEKFVKWLESEPSSGAPPPS-OH; lactam 20-24; N-terminus assumed) | 2 pM | > 1000 pM
CC(C)C[C@H](NC(=O)[C@H](Cc1ccc(O)cc1)NC(=O)[C@H](CCCCN)NC(=O)[C@H](CO)NC(=O)[C@H](Cc1ccc(O)cc1)NC(=O)[C@H](CC(=O)O)NC(=O)[C@H](CO)NC(=O)[C@@H](NC(=O)[C@H](Cc1ccccc1)NC(=O)[C@@H](NC(=O)CNC(=O)[C@H](Cc1c[nH]cn1)NC(=O)[C@H](CO)NC(=O)[C@@H](N)Cc1ccc(O)cc1)[C@@H](C)O)[C@@H](C)O)C(=O)N[C@@H](CC(=O)O)C(=O)N[C@@H](CCCCNC(=O)CC[C@H](NC(=O)CC[C@H](NC(=O)COCCOCCNC(=O)CCCCCCCCCCCCCCCCCCC(=O)O)C(=O)O)C(=O)O)C(=O)N[C@@H](CCCCN)C(=O)N[C@@H](Cc1ccc(O)cc1)C(=O)N[C@@H](C)C(=O)N[C@H]1CCC(=O)NCCCC[C@@H](C(=O)N[C@@H](Cc2c[nH]c3ccccc23)C(=O)N[C@@H](CC(C)C)C(=O)N[C@@H](CCC(=O)O)C(=O)N[C@@H](CC(=O)O)C(=O)N[C@@H](CCC(=O)O)C(=O)N2CCC[C@H]2C(=O)N[C@@H](CO)C(=O)N[C@@H](CO)C(=O)NCC(=O)N[C@@H](CCC(=O)O)C(=O)N2CCC[C@H]2C(=O)N2CCC[C@H]2C(=O)N2CCC[C@H]2C(=O)N[C@@H](CO)C(=O)O)NC(=O)[C@H](C(C)C)NC(=O)[C@H](Cc2ccccc2)NC(=O)[C@H](CCCCN)NC1=O [Compound A31] (H-YSHGTFTSDYSKYLDK([γGlu-γGlu-AEEA-C20 diacid])KYAEKFVKWLEDEPSSGEPPPS-OH; lactam 20-24; N-terminus assumed) | 1.26 pM | > 1000 pM
CC(C)C[C@H](NC(=O)[C@H](Cc1ccc(O)cc1)NC(=O)[C@H](CCCCN)NC(=O)[C@H](CO)NC(=O)[C@H](Cc1ccc(O)cc1)NC(=O)[C@H](CC(=O)O)NC(=O)[C@H](CO)NC(=O)[C@@H](NC(=O)[C@H](Cc1ccccc1)NC(=O)[C@@H](NC(=O)CNC(=O)[C@H](Cc1c[nH]cn1)NC(=O)[C@H](CO)NC(=O)[C@@H](N)Cc1ccc(O)cc1)[C@@H](C)O)[C@@H](C)O)C(=O)N[C@@H](CC(=O)O)C(=O)N[C@@H](CCCCNC(=O)CC[C@H](NC(=O)CC[C@H](NC(=O)COCCOCCNC(=O)CCCCCCCCCCCCCCCCCCC(=O)O)C(=O)O)C(=O)O)C(=O)N[C@@H](CCCCN)C(=O)N[C@@H](Cc1ccc(O)cc1)C(=O)N[C@@H](C)C(=O)N[C@H]1CCC(=O)NCCCC[C@@H](C(=O)N[C@@H](Cc2c[nH]c3ccccc23)C(=O)N[C@@H](CC(C)C)C(=O)N[C@@H](CCC(=O)O)C(=O)N[C@@H](CC(=O)O)C(=O)N[C@@H](CCC(=O)O)C(=O)N2CCC[C@H]2C(=O)N[C@@H](CO)C(=O)N[C@@H](CO)C(=O)NCC(=O)N[C@@H](CCCCN)C(=O)N2CCC[C@H]2C(=O)N2CCC[C@H]2C(=O)N2CCC[C@H]2C(=O)N[C@@H](CO)C(=O)O)NC(=O)[C@H](C(C)C)NC(=O)[C@H](Cc2ccccc2)NC(=O)[C@H](CCCCN)NC1=O [Compound A32] (H-YSHGTFTSDYSKYLDK([γGlu-γGlu-AEEA-C20 diacid])KYAEKFVKWLEDEPSSGKPPPS-OH; lactam 20-24; N-terminus assumed) | 2 pM | > 1000 pM
